Assays:
CYP2C8 = molecular target: T1, CYP2C8 (Homo sapiens, UniProt P10632); test: CYP Inhibition Assay (CYP2C8, human liver microsomes, paclitaxel substrate); assay type: in vitro ADME; conditions: pH 7.4; pooled human liver microsomes 0.1 mg/mL, probe substrate paclitaxel
T1 construct: Pooled human microsomes were obtained from Sekisui XenoTech, KS; tissue Sekisui XenoTech, KS; host or cells: pooled human liver microsomes
T1 sequence (P10632 1-490): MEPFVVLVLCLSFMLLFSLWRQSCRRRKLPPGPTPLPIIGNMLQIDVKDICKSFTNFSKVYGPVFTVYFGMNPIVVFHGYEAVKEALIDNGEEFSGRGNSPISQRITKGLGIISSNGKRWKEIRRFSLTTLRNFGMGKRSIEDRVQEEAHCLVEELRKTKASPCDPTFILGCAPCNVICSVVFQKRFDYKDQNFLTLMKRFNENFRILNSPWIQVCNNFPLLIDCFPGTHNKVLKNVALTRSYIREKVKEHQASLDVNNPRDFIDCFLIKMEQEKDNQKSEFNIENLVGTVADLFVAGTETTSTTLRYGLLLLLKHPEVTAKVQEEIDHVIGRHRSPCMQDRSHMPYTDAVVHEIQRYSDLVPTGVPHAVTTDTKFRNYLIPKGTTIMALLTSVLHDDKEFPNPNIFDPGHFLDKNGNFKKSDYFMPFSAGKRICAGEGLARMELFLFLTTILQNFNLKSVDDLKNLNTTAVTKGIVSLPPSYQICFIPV
How it was run: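 Pooled human liver microsomes (0.1 mg/mL) in 50 mM potassium phosphate pH 7.4 with compound, started with 1 mM NADPH, 5 min at 37° C, duplicate.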

GR = molecular target: T2, GR (Homo sapiens, UniProt P04150); test: In Vitro GR Luciferase Reporter Assay (antagonist mode, CHO-K1-GR-MMTV-Luc reporter cells); assay type: cell-based; conditions: antagonist mode, 10 nM Dexamethasone
T2 construct: expressed in transfected cells; host or cells: CHO-K1
T2 sequence (P04150 1-777): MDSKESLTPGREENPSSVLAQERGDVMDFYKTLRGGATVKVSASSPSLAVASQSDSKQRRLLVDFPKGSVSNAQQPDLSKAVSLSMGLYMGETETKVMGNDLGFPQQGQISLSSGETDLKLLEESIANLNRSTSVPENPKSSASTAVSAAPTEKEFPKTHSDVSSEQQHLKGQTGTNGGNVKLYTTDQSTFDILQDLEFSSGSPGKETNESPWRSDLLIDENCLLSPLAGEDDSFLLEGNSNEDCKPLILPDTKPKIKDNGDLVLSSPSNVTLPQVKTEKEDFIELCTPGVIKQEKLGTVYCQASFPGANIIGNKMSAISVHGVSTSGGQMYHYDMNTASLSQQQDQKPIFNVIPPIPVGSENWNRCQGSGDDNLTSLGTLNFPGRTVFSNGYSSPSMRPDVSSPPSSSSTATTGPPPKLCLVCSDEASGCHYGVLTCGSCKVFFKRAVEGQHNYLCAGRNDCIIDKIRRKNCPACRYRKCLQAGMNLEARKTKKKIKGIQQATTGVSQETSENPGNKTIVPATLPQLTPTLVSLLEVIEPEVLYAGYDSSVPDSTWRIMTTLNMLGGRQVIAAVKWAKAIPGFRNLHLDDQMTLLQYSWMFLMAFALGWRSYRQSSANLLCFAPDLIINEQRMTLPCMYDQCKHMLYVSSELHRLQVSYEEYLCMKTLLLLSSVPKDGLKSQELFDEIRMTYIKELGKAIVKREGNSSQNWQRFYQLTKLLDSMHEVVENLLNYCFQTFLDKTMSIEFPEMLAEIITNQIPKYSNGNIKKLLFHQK
How it was run: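 CHO-K1-GR-MMTV-Luc cells in phenol red-free DMEM with 10% CSS, stimulated with 10 nM dexamethasone (final) and treated with 8-point 1:5 compound dilutions for about 18-24 h at 37° C. Luciferase measured by OneGlo luminescence; IC50 derived for inhibition of GR activity.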

Compound	inhibition at 5 min (CYP2C8)	IC50 (GR)
CCN([C@H]1CCC2=Cc3c(cnn3-c3ccc(F)cc3)C[C@]2(C(=O)c2cc(C(F)(F)F)ccn2)C1)S(=O)(=O)c1ncn(C)n1 [Example 357, N-ethyl-N-((4aS,6S)-1-(4-fluorophenyl)-4a-(4-(trifluoromethyl)picolinoyl)-4,4a,5,6,7,8-hexahydro-1H-benzo[f]indazol-6-yl)-1-methyl-1H-1,2,4-triazole-3-sulfonamide]	≤ 25%	≤ 100 nM
CCN([C@H]1CCC2=Cc3c(cnn3-c3ccc(F)cc3)C[C@]2(C(=O)c2cc(F)ccn2)C1)S(=O)(=O)c1ncn(C)n1 [Example 358, N-ethyl-N-((4aS,6S)-1-(4-fluorophenyl)-4a-(4-fluoropicolinoyl)-4,4a,5,6,7,8-hexahydro-1H-benzo[f]indazol-6-yl)-1-methyl-1H-1,2,4-triazole-3-sulfonamide]	25 to 50%	≤ 100 nM
CCN([C@H]1CCC2=Cc3c(cnn3-c3ccc(F)cc3)C[C@]2(C(=O)c2cc(Cl)ccn2)C1)S(=O)(=O)c1ncn(C)n1 [Example 359, N-((4aS,6S)-4a-(4-chloropicolinoyl)-1-(4-fluorophenyl)-4,4a,5,6,7,8-hexahydro-1H-benzo[f]indazol-6-yl)-N-ethyl-1-methyl-1H-1,2,4-triazole-3-sulfonamide]	25 to 50%	≤ 100 nM
Cn1cnc(S(=O)(=O)N(C2CC2)[C@H]2CCC3=Cc4c(cnn4-c4ccc(F)cc4)C[C@]3(C(=O)c3cc(Cl)ccn3)C2)c1 [Example 363, N-((4aS,6S)-4a-(4-chloropicolinoyl)-1-(4-fluorophenyl)-4,4a,5,6,7,8-hexahydro-1H-benzo[f]indazol-6-yl)-N-cyclopropyl-1-methyl-1H-imidazole-4-sulfonamide]	25 to 50%	≤ 100 nM
Cn1ccc(S(=O)(=O)N([C@H]2CCC3=Cc4c(cnn4-c4ccc(F)cc4)C[C@]3(C(=O)c3ncc(C(F)(F)F)s3)C2)[C@H]2C[C@](O)(C(F)(F)F)C2)n1 [Example 366, N-((4aS,6S)-1-(4-fluorophenyl)-4a-(5-(trifluoromethyl)thiazole-2-carbonyl)-4,4a,5,6,7,8-hexahydro-1H-benzo[f]indazol-6-yl)-N-((1s,3R)-3-hydroxy-3-(trifluoromethyl)cyclobutyl)-1-methyl-1H-pyrazole-3-sulfonamide]	≤ 25%	≤ 100 nM
Cn1cnc(S(=O)(=O)N(CC(F)(F)F)[C@H]2CCC3=Cc4c(cnn4-c4ccc(F)cc4)C[C@]3(C(=O)c3ncc(C(F)(F)F)s3)C2)n1 [Example 367, N-((4aS,6S)-1-(4-fluorophenyl)-4a-(5-(trifluoromethyl)thiazole-2-carbonyl)-4,4a,5,6,7,8-hexahydro-1H-benzo[f]indazol-6-yl)-1-methyl-N-(2,2,2-trifluoroethyl)-1H-1,2,4-triazole-3-sulfonamide]	25 to 50%	≤ 100 nM
Cn1ccc(S(=O)(=O)N([C@H]2CCC3=Cc4c(cnn4-c4ccc(F)cc4)C[C@]3(C(=O)c3ncc(C(F)(F)F)s3)C2)[C@H]2C[C@@](O)(C(F)(F)F)C2)n1 [Example 368, N-((4aS,6S)-1-(4-fluorophenyl)-4a-(5-(trifluoromethyl)thiazole-2-carbonyl)-4,4a,5,6,7,8-hexahydro-1H-benzo[f]indazol-6-yl)-N-((1r,3S)-3-hydroxy-3-(trifluoromethyl)cyclobutyl)-1-methyl-1H-pyrazole-3-sulfonamide]	25 to 50%	≤ 100 nM
CO[C@]1(C)C[C@H](N([C@H]2CCC3=Cc4c(cnn4-c4ccc(F)cc4)C[C@]3(C(=O)c3cc(F)ccn3)C2)S(=O)(=O)c2ccn(C)n2)C1 [Example 371, N-((4aS,6S)-1-(4-fluorophenyl)-4a-(4-fluoropicolinoyl)-4,4a,5,6,7,8-hexahydro-1H-benzo[f]indazol-6-yl)-N-((1s,3R)-3-methoxy-3-methylcyclobutyl)-1-methyl-1H-pyrazole-3-sulfonamide]	25 to 50%	≤ 100 nM
Cn1cc(S(=O)(=O)N(CC(F)F)[C@H]2CCC3=Cc4c(cnn4-c4ccc(F)cc4)C[C@]3(C(=O)c3cc(F)ccn3)C2)nn1 [Example 373, N-(2,2-difluoroethyl)-N-((4aS,6S)-1-(4-fluorophenyl)-4a-(4-fluoropicolinoyl)-4,4a,5,6,7,8-hexahydro-1H-benzo[f]indazol-6-yl)-1-methyl-1H-1,2,3-triazole-4-sulfonamide]	50 to 75%	≤ 100 nM
Cn1cnc(S(=O)(=O)[C@H]2CCC3=Cc4c(cnn4-c4ccc(F)cc4)C[C@]3(C(=O)c3ccc(C(F)(F)F)cn3)C2)n1 [Example 374, ((4aS,6S)-1-(4-fluorophenyl)-6-((1-methyl-1H-1,2,4-triazol-3-yl)sulfonyl)-1,4,5,6,7,8-hexahydro-4aH-benzo[f]indazol-4a-yl)(5-(trifluoromethyl)pyridin-2-yl)methanone]	≤ 25%	≤ 100 nM
Cn1cnc(S(=O)(=O)CC2CCC3=Cc4c(cnn4-c4ccc(F)cc4)C[C@]3(C(=O)c3cc(C(F)(F)F)ccn3)C2)n1 (stereo partly drawn) [Example 377, ((4aR)-1-(4-fluorophenyl)-6-(((1-methyl-1H-1,2,4-triazol-3-yl)sulfonyl)methyl)-1,4,5,6,7,8-hexahydro-4aH-benzo[f]indazol-4a-yl)(4-(trifluoromethyl)pyridin-2-yl)methanone]	25 to 50%	≤ 100 nM

From US20210122730A1, “GLUCOCORTICOID RECEPTOR MODULATORS” (ORIC Pharmaceuticals, Inc., priority 2017, published 2021)
